{"source": "patent US10975069B2", "about": "“Sigma-2 receptor ligand drug conjugates as antitumor compounds, methods of synthesis and uses thereof” (priority 2014, dated 2021)", "key": {"[1]": {"system": "SYO-1 Synovial sarcoma (SS) xenografts", "test": "SYO-1 synovial sarcoma xenograft", "type": "in vivo, athymic nude mice", "details": "300 nmoles for 14 days; FIG. 14E", "method": "SYO-1 Synovial sarcoma (SS) xenografts were also treated with 300 nmoles SW V-49. […] FIG. 14E depicts athymic nude mice xenograft of SS cell line SYO-1 treated with SW V-49 (300 nmoles) for 14 days and then followed, p<0.0001. SYO xenografts required a smaller dose of SW V-49 to achieve results similar to those achieved against PDAC."}, "[2]": {"system": "caspase 8", "test": "CASPASE-GLO caspase 8 assay in AsPC-1 cells", "type": "cell-based, human", "details": "4 μM, 24 hours, FIG. 12C", "method": "In these experiments, caspase-3/7.8 and 9 activities were measured In AsPC-1 cells using the corresponding CASPASE-GLO® Assay according to the manufacturer's instructions (Promega, Madison. Wis.). This assay is based on a caspase-specific substrate, which is cleaved to release aminoluciferin, a substrate of luciferase that results in caspase-specific luminescence signals. Cells were seeded at a density of 2×10^4 in white 96-well, clear bottom plates for 24 hours before treatment with 4 μM of compounds. The contents were then mixed using a plate shaker for 30 seconds, thereafter incubated at room temperature for 90 minutes. Luminescence signal was measured using a multi-mode microplate reader (BioTek). Assay was performed in triplicates, and the caspase activity of DMSO was considered as a base line.\nThe present inventors have shown that SV119 induces caspase-3 dependent apoptosis (Kashiwagi, H., el al. Mol Cancer 2007; 6:48). In these experiments, AsPC-1 cells were treated with 4 μM of SW V-49s. SV119, Erastin, and equimolar mixture of SV119 and Erastin for 24 hours. Using CASPASE-GLO® Assays, Caspase-3 level was measured to assess the activity of SW 119 domain of the SW V-49s compound and Caspase-8 and 9 levels were measured to identify which apoptotic pathway was involved."}, "[3]": {"biological_target": "T1, sigma-2 receptors (Homo sapiens, UniProt Q5BJF2)", "T1 construct": "endogenous in cells", "T1 sequence (Q5BJF2 whole entry)": "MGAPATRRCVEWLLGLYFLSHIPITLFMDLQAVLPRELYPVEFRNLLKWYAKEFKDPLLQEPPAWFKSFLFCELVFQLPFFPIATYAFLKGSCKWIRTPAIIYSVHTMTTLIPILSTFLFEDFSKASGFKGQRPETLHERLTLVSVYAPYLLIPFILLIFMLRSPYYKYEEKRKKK", "test": "Competitive inhibition of internalization of fluorescent sigma-2 ligand SW 120 (flow cytometry)", "type": "cell-based", "details": "increasing concentrations of SW V-49s (0, 10, 30, 50), 30 min 37 °C, then SW120; FIG. 3", "method": "In these experiments, competitive binding assays of SW V-49s with the fluorescently labeled sigma-2 ligand SW 120 of structure\nAsPC-1 cells (5×10^5/well) were seeded into a 6 well plate for 24 hours before treatment. The cells were then incubated with […] of SW V-49s for 30 minutes at 37° C. Subsequently, 10 nM of fluorescently labeled sigma-2 ligand SW120 was added to the cell culture medium containing SW V-49s. After 30 minute of incubation at 37° C., cells were washed twice with phosphate buffered saline (PBS) and harvested with 0.05% trypsin EDTA (Life Technologies. Grand Island, N.Y.). Thereafter, the cells were centrifuged at 1000×g for 5 minutes and the pellets were washed twice with PBS. Internalization of SW 120 was determined by flow cytometer (FACSCalibur™, BD Biosciences, San Jose, Calif.)."}, "[4]": {"system": "AsPC-1 cells", "test": "CELLTITER-GLO viability after pre-treatment with NAC or ZVAD", "type": "cell-based", "details": "Homo sapiens", "method": "To assess the roles of these two mechanisms on the induction of cell death, the effects of pan-caspase inhibitor and antioxidant on the efficacy of SW V-49s were tested. In these experiments, AsPC-1 cells were pre-treated with 10 mM of the antioxidant N acetyl cysteine (NAC), 20 μM of pan-caspase inhibitor ZVAD, and DMSO as a control for 1 hour. Then, the 3 groups were treated with 10 μM of SW V-49s for 5 hours, after which a CELLTITER-GLO® viability assay was performed."}}}
{"smiles": "CCOc1ccccc1-n1c(CN2CCN(C(=O)COc3ccc(CNCCCCCCN4C5CCCC4CC(OC(=O)Nc4cc(C)ccc4OC)C5)cc3)CC2)nc2ccccc2c1=O.O=C(O)C(=O)O", "note": "(stereo not drawn) [SW V-49s]", "values": [{"measurement": "tumor growth", "setting": "[1]", "value": "Growth inhibition"}, {"measurement": "increase in caspase 8", "setting": "[2]", "value": "no significant increase"}, {"measurement": "blocking of SW 120 internalization", "setting": "[3]", "value": "efficient blocking of SW 120 internalization"}, {"measurement": "viability at 10 µM", "setting": "[4]; ASPC1, 10 μM SW V-49s 5 hours after 1 hour pre-treatment with 20 μM ZVAD", "value": 91, "unit": "%"}, {"measurement": "viability at 10 µM", "setting": "[4]; ASPC1, 10 μM SW V-49s 5 hours after 1 hour pre-treatment with 10 mM NAC", "value": 63, "unit": "%"}, {"measurement": "viability at 10 µM", "setting": "[4]; ASPC1, 10 μM SW V-49s alone, 5 hours (DMSO pre-treatment)", "value": 39, "unit": "%"}]}
